Experimental data from patent US9458181B2, “Cathepsin cysteine protease inhibitors” (Merck Sharp & Dohme Corp., priority 2013, dated 2016).

How the values were obtained:
human cathepsin K = human cathepsin K (UniProt P43236); assay: Cathepsin K Assay (hrbCat K); type: biochemical; conditions: human cathepsin K 0.4 nM, Z-Leu-Arg-AMC 8 μM, pH 5.5, 15 min preincubation; read-out: hrbCat K IP
Summary of the method: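 Human cathepsin K (0.4 nM) in pH 5.5 MES buffer with EDTA, DTT and 10% DMSO was preincubated 15 min at room temperature with compound from a ⅓ dilution series (500-0.025 μM DMSO stocks). Z-Leu-Arg-AMC (8 μM) was then added, and AMC release was followed fluorometrically (Ex 360/Em 460 nm) for 30 min; inhibition was fitted to a dose-response model.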

human cathepsin F = molecular target: T1, human cathepsin F (Homo sapiens, UniProt Q9UBX1); assay: Cathepsin F assay (hCat F); type: biochemical; conditions: human cathepsin F 10 nM, Z-Phe-Arg-AMC 8 μM, pH 5.5, 15 min preincubation; read-out: hCat F IP
T1 sequence (Q9UBX1 271-484): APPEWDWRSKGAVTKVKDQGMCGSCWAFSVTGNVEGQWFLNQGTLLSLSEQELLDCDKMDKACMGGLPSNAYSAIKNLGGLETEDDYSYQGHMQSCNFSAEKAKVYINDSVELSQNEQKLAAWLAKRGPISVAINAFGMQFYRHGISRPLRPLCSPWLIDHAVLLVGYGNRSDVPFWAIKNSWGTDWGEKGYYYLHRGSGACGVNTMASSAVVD
Summary of the method: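 Human cathepsin F (10 nM) in 50 mM MES pH 5.5, 2.5 mM EDTA, 2.5 mM DTT, 10% DMSO was preincubated 15 min at RT with compounds from a ⅓ DMSO dilution series (500–0.025 μM stocks). Z-Phe-Arg-AMC was added (8 μM as added), and AMC release was read by fluorescence (360/460 nm) for 20 min. Percent inhibition was fitted to a dose-response model.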

Row | IC50 (human cathepsin K) [µM] | IC50 (human cathepsin F) [µM] | Compound
1 | 0.00251 | 0.82 | CC1(c2nc(-c3ccc(N4CCS(=O)(=O)CC4)cc3)c([C@@H]3CCCC[C@H]3C(=O)NC3(C#N)CC3)o2)CCC(F)(F)CC1 [Example 52, (1R,2R)-N-(1-cyanocyclopropyl)-2-(2-(4,4-difluoro-1-methylcyclohexyl)-4-(4-(1,1-dioxidothiomorpholino)phenyl)oxazol-5-yl)cyclohexanecarboxamide]
2 | 0.00193 | 0.582 | CC1(c2nc(-c3ccc(N4CCS(=O)(=O)CC4)cc3)c([C@@H]3CCCC[C@H]3C(=O)NC3(C#N)CC3)o2)CC[Si](C)(C)CC1 [Example 53, (1R,2R)-N-(1-cyanocyclopropyl)-2-(4-(4-(1,1-dioxidothiomorpholino)phenyl)-2-(1,1,4-trimethylsilinan-4-yl)oxazol-5-yl)cyclohexanecarboxamide]
3 | 0.00231 | 5.31 | Cc1nc(-c2ccc(N3CCS(=O)(=O)CC3)cc2)c([C@@H]2CCCC[C@H]2C(=O)NC2(C#N)CC2)s1 [Example 54, (1R,2R)-N-(1-cyanocyclopropyl)-2-(4-(4-(1,1-dioxidothiomorpholino)phenyl)-2-methylthiazol-5-yl)cyclohexanecarboxamide]
4 | 0.00415 | 5.48 | Cc1nc(-c2ccc(N3CC(S(C)(=O)=O)C3)cc2)c([C@@H]2CCCC[C@H]2C(=O)NC2(C#N)CC2)s1 [Example 55, (1R,2R)-N-(1-cyanocyclopropyl)-2-(2-mcthyl-4-(4-(3-(methylsulfonyl)azetidin-1-yl)phenyl)thiazol-5-yl)cyclohexanecarboxamide]
5 | 0.00319 | 0.722 | N#CC1(NC(=O)[C@@H]2CCCC[C@H]2c2sc(-c3ccc(F)cc3)nc2-c2ccc(N3CCS(=O)(=O)CC3)cc2)CC1 [Example 56, (1R,2R)-N-(1-cyanocyclopropyl)-2-(4-(4-(1,1-dioxidothiomorpholino)phenyl)-2-(4-fluorophenyl)thiazol-5-yl)cyclohexanecarboxamide]
6 | 0.00058 | 0.093 | N#CC1(NC(=O)[C@@H]2CC(F)(F)CC[C@H]2c2sc(CC(F)(F)F)nc2-c2ccc(N3CCS(=O)(=O)CC3)cc2)CC1 [Example 57, (1R,2R)-N-(1-cyanocyclopropyl)-2-(4-(4-(1,1-dioxidothiomorpholino)phenyl)-2-(2,2,2-trifluoroethyl)thiazol-5-yl)-5,5-difluorocyclohexane-carboxamide]
7 | 0.00067 | 0.072 | CC(C)(C)c1nc(-c2ccc(N3CCS(=O)(=O)CC3)cc2)c([C@@H]2CCC(F)(F)C[C@H]2C(=O)NC2(C#N)CC2)s1 [Example 58, (1R,2R)-2-(2-(tert-butyl)-4-(4-(1,1-dioxidothiomorpholino)phenyl)thiazol-5-yl)-N-(1-cyanocyclopropyl)-5,5-difluorocyclohexane-carboxamide]
8 | 0.00051 | 0.389 | Cc1nc(-c2ccc(N3CCS(=O)(=O)CC3)cc2)c([C@@H]2CCC(F)(F)C[C@H]2C(=O)NC2(C#N)CC2)s1 [Example 59, (1R,2R)-N-(1-cyanocyclopropyl)-2-(4-(4-(1,1-dioxidothiomorpholino)phenyl)-2-methylthiazol-5-yl)-5,5-difluorocyclohexane-carboxamide]
9 | 0.00437 | 3.29 | N#CC1(NC(=O)[C@@H]2CCCC[C@H]2c2sc(C(F)(F)F)nc2-c2ccc(N3CCS(=O)(=O)CC3)cc2)CC1 [Example 60, (1R,2R)-N-(1-cyanocyclopropyl)-2-(4-(4-(1,1-dioxidothiomorpholino)phenyl)-2-(trifluoromethyl)thiazol-5-yl)cyclohexanecarboxamide]
10 | 0.00136 | 0.511 | N#CC1(NC(=O)[C@@H]2CCCC[C@H]2c2oc(-c3ccc(OC(F)(F)F)cc3)nc2-c2ccc(N3CCS(=O)(=O)CC3)cc2)CC1 [Example 61, (1R,2R)-N-(1-cyanocyclopropyl)-2-(4-(4-(1,1-dioxidothiomorpholino)phenyl)-2-(4-(trifluoromethoxy)phenyl)oxazol-5-yl)cyclohexanecarboxamide]
11 | 0.00092 | 0.492 | N#CC1(NC(=O)[C@@H]2CCCC[C@H]2c2oc(-c3cccc(F)c3)nc2-c2ccc(N3CCS(=O)(=O)CC3)cc2)CC1 [Example 62, (1R,2R)-N-(1-cyanocyclopropyl)-2-(4-(4-(1,1-dioxidothiomorpholino)phenyl)-2-(3-fluorophenyl)oxazol-5-yl)cyclohexanecarboxamide]
12 | 0.00123 | 0.639 | N#CC1(NC(=O)[C@@H]2CCCC[C@H]2c2oc(-c3ccccc3OC(F)(F)F)nc2-c2ccc(N3CCS(=O)(=O)CC3)cc2)CC1 [Example 63, (1R,2R)-N-(1-cyanocyclopropyl)-2-(4-(4-(1,1-dioxidothiomorpholino)phenyl)-2-(2-(trifluoromethoxy)phenyl)oxazol-5-yl)cyclohcxanecarboxamide]
13 | 0.00104 | 0.573 | N#CC1(NC(=O)[C@@H]2CCCC[C@H]2c2oc(-c3ccc(OC(F)F)cc3)nc2-c2ccc(N3CCS(=O)(=O)CC3)cc2)CC1 [Example 64, (1R,2R)-N-(1-cyanocyclopropyl)-2-(2-(4-(difluoromethoxy)phenyl)-4-(4-(1,1-dioxidothiomorpholino)phenyl)oxazol-5-yl)cyclohexanecarboxamide]
14 | 0.0013 | 0.825 | N#CC1(NC(=O)[C@@H]2CCCC[C@H]2c2oc(-c3ccc(C(F)(F)F)cc3)nc2-c2ccc(N3CCS(=O)(=O)CC3)cc2)CC1 [Example 65, (1R,2R)-N-(1-cyanocyclopropyl)-2-(4-(4-(1,1-dioxidothiomorpholino)phenyl)-2-(4-(trifluoromethyl)phenyl)oxazol-5-yl)cyclohexanecarboxamide]
15 | 0.00121 | 0.454 | N#CC1(NC(=O)[C@@H]2CCCC[C@H]2c2oc(-c3cccc(C(F)(F)F)c3)nc2-c2ccc(N3CCS(=O)(=O)CC3)cc2)CC1 [Example 66, (1R,2R)-N-(1-cyanocyclopropyl)-2-(4-(4-(1,1-dioxidothiomorpholino)phenyl)-2-(3-(trifluoromethyl)phenyl)oxazol-5-yl)cyclohexanecarboxamide]
16 | 0.00057 | 0.619 | N#CC1(NC(=O)[C@@H]2CCCC[C@H]2c2oc(-c3ccccc3F)nc2-c2ccc(N3CCS(=O)(=O)CC3)cc2)CC1 [Example 67, (1R,2R)-N-(1-cyanocyclopropyl)-2-(4-(4-(1,1-dioxidothiomorpholino)phenyl)-2-(2-fluorophenyl)oxazol-5-yl)cyclohexanecarboxamide]
17 | 0.00104 | 0.502 | N#CC1(NC(=O)[C@@H]2CCCC[C@H]2c2oc(-c3cccc(OC(F)F)c3)nc2-c2ccc(N3CCS(=O)(=O)CC3)cc2)CC1 [Example 68, (1R,2R)-N-(1-cyanocyclopropyl)-2-(2-(3-(difluoromethoxy)phenyl)-4-(4-(1,1-dioxidothiomorpholino)phenyl)oxazol-5-yl)cyclohexanecarboxamide]
18 | 0.00294 | 0.827 | N#CC1(NC(=O)[C@@H]2CCCC[C@H]2c2oc(-c3ccccc3C(F)(F)F)nc2-c2ccc(N3CCS(=O)(=O)CC3)cc2)CC1 [Example 69, (1R,2R)-N-(1-cyanocyclopropyl)-2-(4-(4-(1,1-dioxidothiomorpholino)phenyl)-2-(2-(trifluoromethyl)phenyl)oxazol-5-yl)cyclohexanecarboxamide]
19 | 0.00184 | 0.734 | COc1ccc(-c2nc(-c3ccc(N4CCS(=O)(=O)CC4)cc3)c([C@@H]3CCCC[C@H]3C(=O)NC3(C#N)CC3)o2)cc1 [Example 70]
